Assays:
PEDV [1] = assay: Anti-PEDV activity assay, PEDV-induced cytopathic effect; type: cell-based; conditions: Vero E6 cells, PEDV 0.01 MOI, until virus control showed complete CPE
PDCoV = conditions: ref Brown et al. [2019]; cited from earlier work
Vero E6 cells = assay: Cytotoxicity assay; type: cell-based, African green monkey; conditions: 72 h, CCK-8 assay
PEDV [2] = assay: Anti-PEDV activity assay, viral loads; type: cell-based; conditions: for concentration that completely inhibited PEDV replication: Vero E6 cells, PEDV 0.01 MOI, 48 h post infection, qRT-PCR and TCID50
[3] = test system: human cell lines and primary cells; conditions: cited from earlier work
[4] = Pharmacokinetics study of RDV-N in ICR mice; type: in vivo
[5] = test system: feline infectious peritonitis virus (FIPV); conditions: cats, subcutaneous, 5 mg/kg or 2 mg/kg; ref Murphy et al. [2018]; cited from earlier work
[6] = Water solubility and lipophilicity; type: physicochemical
PEDV spike protein = assay: Indirect immuno-fluorescence assay; type: cell-based, porcine epidemic diarrhea virus, variant strain SDSX16; conditions: 0.2 μmol/L, 48 h, Vero E6 cells
PEDV 3CL^pro = conditions: PEDV 3CLpro; ref Ye et al. [2020]; cited from earlier work

Compound	concentration at which PEDV-induced CPE was obviously blocked (PEDV [1]) [µmol/L]	EC50 (PDCoV) [µM]	maximal non-toxic concentration (MNTC) (Vero E6 cells) [µmol/L]	concentration that completely inhibited PEDV replication (PEDV [2]) [µmol/L]	CC50 [3] [µM]	half-life ([4]; male, ICR, mouse, plasma, iv, 25 mg/kg) [h]	half-life ([4]; male, ICR, mouse, plasma, po, 50 mg/kg) [h]	Tmax ([4]; male, ICR, mouse, plasma, po, 50 mg/kg, Tmax, mice) [h]	AUClast ([4]; mice, IV, 25 mg/kg)	AUClast ([4]; mice, PO, 50 mg/kg) [ng·h/mL]	Cmax ([4]; mice, PO, 50 mg/kg) [µg/mL]	cure rate [5] [%]	lipophilicity [6]	water solubility [6]	fold more potent than NHC (EC50) (PEDV [2]; 72 h post infection, qRT-PCR)	fluorescence intensity (viral protein expression) (PEDV spike protein)	IC50 (PEDV 3CL^pro) [µM]
CCC(CC)COC(=O)[C@H](C)N[P@](=O)(OC[C@H]1O[C@@](C#N)(c2ccc3c(N)ncnn23)[C@H](O)[C@@H]1O)Oc1ccccc1 [RDV, remdesivir]	0.5	0.02	125	7.8	1.7 to 15												
N#C[C@@]1(c2ccc3c(N)ncnn23)O[C@H](CO)[C@@H](O)[C@H]1O [RDV-N]	0.2		125	2.0		1.02	1.2	≤ 1	14,513 h × ng/mL	4556	1.826	100	low lipophilicity	poor water solubility	3	significantly decreased	
GC376																	1.11
